Values of other authors in EP0769503A2, “A heparin complex and medical device having such substance” (priority 1995, dated 1997).

Tested on: rat
Conditions: oral administration to rat

Molecule	LD50 [mg/kg]
CCCCCCCCCCCCCCCCCC[N+](C)(C)CCCCCCCCCCCCCCCCCC.[Cl-] [Distearyldimethylammonium chloride]	11300
CCCCCCCCCCCC[N+](C)(C)Cc1ccccc1.[Cl-] [Laurylbenzyldimethylammonium chloride]	>500
CCCCCCCCCCCCCCCCCC[N+](C)(C)Cc1ccccc1.[Cl-] [Stearylbenzyldimethylammonium chloride]	1250
CCCCCCCCCCCCCCCC[N+](C)(C)C.[Cl-] [Trimethylhexadecylammonium chloride]	250 to 300
CCCCCCCCCCCCCCCCCC[N+](C)(C)C.[Cl-] [Trimethyloctadecylammonium chloride]	1000
Benzalkonium dimethylammonium (C8-C18) chloride	445
